Results from patent publication EP0346760A2, “Derivatives of nigericine, methods for their preparation, compositions containing them and their use” (priority 1988, dated 1989).
≈ marks a conversion by molar mass, not a printed value. Like-named read-outs stand apart in the source and are kept apart here.

Key:
Assay type in all cases: cell-based
Adeno 5 = details: HeLa or Vero cells, 72 h CPE, concentration at which about 50 % of the cells survive the infection
Paramyxo. III = details: HeLa or Vero cells, 72 h CPE, about 50 % of the cells survive
Strept. faecium (D) = test: Agar dilution test (Lorian), antibacterial activity; details: Enterococcus faecium
Procedure: (§1) Die antibakterielle Wirksamkeit der erfindungsgemäßen Verbindungen wurde im Agar-Verdünnungstest nach Lorian (Antibiotics in Laboratory Medicine, Williams & Wilkins, Baltimore/London, 1980) bestimmt. Dabei wurden die Präparate in einer geometrischen Verdünnungsreihe mit dem Faktor 2 in Müller Hinton Agar verdünnt. Eine Petrischale enthielt nur Müller Hinton Agar und diente zur Kontrolle des Bakterienwachstums. Die Petrischalen wurden dann mit einem Denley-Multipoint-Inokulator, welcher 0,6 µl einer 1 : 100 verdünnten 18-Stunden-Kultur der Testbakterien übertrug, mit den entsprechenden Testbakterien beimpft. Nach 16 bis 18 Stunden Inkubation bei 37°C wurden die Petrischalen makroskopisch auf Bakterienwachstum untersucht.
(§2) Die niedrigste Konzentration der erfindungsgemäßen Verbindungen, welche das Bakterienwachstum noch vollständig verhinderte, wurde als MIC (Minimum Inhibitory Concentration) angenommen.
(§3) In Tabelle 3 ist die Wirkung (Angabe des MIC in µg/ml) von verschiedenen erfindungsgemäßen Verbindungen gegen folgende Bakterien aufgeführt: Staph. aureus (SG 511), Staph. aureus (285), Staph. aureus (503), Strept. pyogenes (308 A), Strept. pyogenes (77 A), Strept. faecium (D). Tabelle 3

Strept. pyogenes (308 A) = test: as above; details: Streptococcus pyogenes
Procedure: as §1, §2, §3

Staph. aureus (503) = test: as above; details: Staphylococcus aureus
Procedure: as §1, §2, §3

Staph. aureus (285) = test: as above; details: Staphylococcus aureus
Procedure: as §1, §2, §3

Strept. pyogenes (77 A) = test: as above; details: Streptococcus pyogenes
Procedure: as §1, §2, §3

Staph. aureus (SG 511) = test: as above; details: Staphylococcus aureus
Procedure: as §1, §2, §3

Herpes I = details: HeLa or Vero cells, 72 h CPE, about 50 % of the cells survive
Herpes II = details: HeLa or Vero cells, 72 h CPE, about 50 % of the cells survive
Influenza A = details: HeLa or Vero cells, 72 h CPE, about 50 % of the cells survive
Vaccina = details: HeLa or Vero cells, 72 h CPE, about 50 % of the cells survive
Rhinovirus II = details: Rhino. II; HeLa or Vero cells, 72 h CPE; about 50 % of the cells survive
HeLa- bzw. Vero-Zellen = test: Maximum tolerated dose (DTM) in cell culture; details: HeLa or Vero cells
Procedure: Die Prüfsubstanzen wurden in Zellkulturmedium (Dulbecco's MEM) gelöst und in einer geometrischen Verdünnungsreihe, Faktor 3, in Standard-Mikrotiterplatten in 100 µl Zellkulturmedium vorgelegt. Anschließend erfolgte die Zugabe von 100 µl einer Suspension von HeLa- bzw. Vero-Zellen in Medium mit 5 % fötalem Kälberserum in einer Zelldichte von 2 x 10⁵ Zellen/ml. Die Ansätze wurden mit 50 µl einer Suspension des jeweiligen Test-Virus infiziert, die so eingestellt war, daß die Zellen innerhalb von 72 h einen cytopathogenen Effekt (CPE) zeigten. Die Auswertung erfolgte durch mikroskopische Begutachtung des Zellrasens und photometrische Messung der Neutralrotaufnahme (Farbtest nach Finter). Als MHK wurde die Konzentration des Präparats angenommen (µg/ml), bei der etwa 50 % der Zellen die Infektion überlebten.
In Spalte 9 ist die DTM (Dosis Tolerata Maxima) in µg/ml angegeben. Tabelle 4

[1] = Strept. faecium (D), Müller Hinton Agar, 16 to 18 h at 37°C, read-out: MIC
[2] = Strept. pyogenes (308 A), Müller Hinton Agar, 16 to 18 h at 37°C, read-out: MIC
[3] = Staph. aureus (503), Müller Hinton Agar, 16 to 18 h at 37°C, read-out: MIC
[4] = Staph. aureus (285), Müller Hinton Agar, 16 to 18 h at 37°C, read-out: MIC
[5] = Strept. pyogenes (77 A), Müller Hinton Agar, 16 to 18 h at 37°C, read-out: MIC
[6] = Staph. aureus (SG 511), Müller Hinton Agar, 16 to 18 h at 37°C, lowest concentration that completely prevents growth, read-out: MIC

SMILES	MHK (Adeno 5)	MHK (Paramyxo. III)	MIC (Strept. faecium (D))	MIC (Strept. pyogenes (308 A))	MIC (Staph. aureus (503))	MIC (Staph. aureus (285))	MIC (Strept. pyogenes (77 A))	MIC (Staph. aureus (SG 511))	MHK (Herpes I)	MHK (Herpes II)	MHK (Influenza A)	MHK (Vaccina)	MHK (Rhinovirus II)	DTM (Dosis Tolerata Maxima) (HeLa- bzw. Vero-Zellen)	MIC (Strept. faecium (D); [1])	MIC (Strept. pyogenes (308 A); [2])	MIC (Staph. aureus (503); [3])	MIC (Staph. aureus (285); [4])	MIC (Strept. pyogenes (77 A); [5])	MIC (Staph. aureus (SG 511); [6])
COC1CC(CC2CCC(C)C(C(C)C(=O)O)O2)OC2(OC(C)(C3CCC(C)(C4OC(C5OC(O)(CO[Si](c6ccccc6)(c6ccccc6)C(C)(C)C)C(C)CC5C)CC4C)O3)CC2C)C1C (stereo not shown) [Beispiel 9]	0,05 µg/ml	4,44 µg/ml	0.7 µg/mL (≈ 0.727 µM)	0.025 µg/mL (≈ 0.026 µM)	0.78 µg/mL (≈ 0.81 µM)	0.78 µg/mL (≈ 0.81 µM)	0.025 µg/mL (≈ 0.026 µM)	0.78 µg/mL (≈ 0.81 µM)	0,05 µg/ml	0,05 µg/ml	0,05 µg/ml	4,44 µg/ml	4,44 µg/ml	4,44 µg/ml						
CCCCOCC1(O)OC(C2CC(C)C(C3(C)CCC(C4(C)CC(C)C5(OC(CC6CCC(C)C(C(C)C(=O)O)O6)CC(OC)C5C)O4)O3)O2)C(C)CC1C (stereo not shown) [Beispiel 8]	0,16 µg/ml	4,44 µg/ml							4,44 µg/ml	0,16 µg/ml	0,05 µg/ml	4,44 µg/ml	4,44 µg/ml	13,3 µg/ml	3.13 µg/mL (≈ 4.01 µM)	0.19 µg/mL (≈ 0.243 µM)	0.78 µg/mL (≈ 0.999 µM)	1.56 µg/mL (≈ 2 µM)	0.098 µg/mL (≈ 0.125 µM)	0.78 µg/mL (≈ 0.999 µM)
COCC1(O)OC(C2CC(C)C(C3(C)CCC(C4(C)CC(C)C5(OC(CC6CCC(C)C(C(C)C(=O)O)O6)CC(OC)C5C)O4)O3)O2)C(C)CC1C (stereo not shown) [Beispiel 7]	0,16 µg/ml								0,05 µg/ml	0,05 µg/ml	0,05 µg/ml	0,49 µg/ml	1,48 µg/ml	4,44 µg/ml	3.13 µg/mL (≈ 4.24 µM)	0.39 µg/mL (≈ 0.528 µM)	0.39 µg/mL (≈ 0.528 µM)	0.78 µg/mL (≈ 1.06 µM)	0.19 µg/mL (≈ 0.257 µM)	0.78 µg/mL (≈ 1.06 µM)
COC1CC(CC2CCC(C)C(C(C)C(=O)O)O2)OC2(OC(C)(C3CCC(C)(C4OC(C5OC(O)(CSC#N)C(C)CC5C)CC4C)O3)CC2C)C1C (stereo not shown) [Beispiel 4]			0.78 µg/mL (≈ 1.02 µM)	0.098 µg/mL (≈ 0.128 µM)	0.78 µg/mL (≈ 1.02 µM)	0.78 µg/mL (≈ 1.02 µM)	0.098 µg/mL (≈ 0.128 µM)													
COC1CC(CC2CCC(C)C(C(C)C(=O)O)O2)OC2(OC(C)(C3CCC(C)(C4OC(C5OC(O)(C[N+](=O)[O-])C(C)CC5C)CC4C)O3)CC2C)C1C (stereo not shown) [Beispiel 5]															0.098 µg/mL (≈ 0.13 µM)	0.004 µg/mL (≈ 0.00531 µM)	0.025 µg/mL (≈ 0.0332 µM)	0.049 µg/mL (≈ 0.065 µM)	0.004 µg/mL (≈ 0.00531 µM)	0.049 µg/mL (≈ 0.065 µM)
COC1CC(CC2CCC(C)C(C(C)C(=O)O)O2)OC2(OC(C)(C3CCC(C)(C4OC(C5OC(O)(CBr)C(C)CC5C)CC4C)O3)CC2C)C1C (stereo not shown) [Beispiel 3]	0,01 µg/ml								0,01 µg/ml	0,3 µg/ml	0,03 µg/ml		0,3 µg/ml	0,89 µg/ml	0.098 µg/mL (≈ 0.124 µM)	< 0.002 µg/mL	0.007 µg/mL (≈ 0.00888 µM)	0.013 µg/mL (≈ 0.0165 µM)	< 0.002 µg/mL	0.013 µg/mL (≈ 0.0165 µM)
COC1CC(CC2CCC(C)C(C(C)C(=O)O)O2)OC2(OC(C)(C3CCC(C)(C4OC(C5OC(O)(CCl)C(C)CC5C)CC4C)O3)CC2C)C1C (stereo not shown) [Beispiel 2]									0,05 µg/ml	< 0,02 µg/ml	0,05 µg/ml	0,49 µg/ml	0,49 µg/ml	1,48 µg/ml	0.391 µg/mL (≈ 0.526 µM)	0.013 µg/mL (≈ 0.0175 µM)	0.025 µg/mL (≈ 0.0336 µM)	0.098 µg/mL (≈ 0.132 µM)	0.007 µg/mL (≈ 0.00942 µM)	0.098 µg/mL (≈ 0.132 µM)
